What was measured:
NCI-H322M = assay: NCI60 one-dose screen (10 μM), Non-small Cell Lung Cancer; format: cell-based; conditions: Homo sapiens, read-out: Growth percent rate
OVCAR-4 = assay: NCI60 one-dose screen (10 μM), Ovarian Cancer; format: cell-based; conditions: Homo sapiens, OVCAR-4, read-out: Growth percent rate
SNB-75 = assay: NCI60 one-dose screen (10 μM), CNS Cancer; format: cell-based, human; conditions: Homo sapiens, SNB-75, read-out: Growth percent rate
HT29 = assay: NCI60 one-dose screen (10 μM), Colon Cancer; format: cell-based; conditions: Homo sapiens, HT-29, read-out: Growth percent rate
NCI-H522 = assay: NCI60 one-dose screen (10 μM), Non-small Cell Lung Cancer; format: cell-based; conditions: Homo sapiens, NCI-H522, read-out: Growth percent rate
DU-145 = assay: NCI60 one-dose screen (10 μM), Prostate Cancer; format: cell-based; conditions: Homo sapiens, DU-145, read-out: Growth percent rate
HCT-116 = assay: NCI60 one-dose screen (10 μM), Colon Cancer; format: cell-based; conditions: Homo sapiens, HCT-116, read-out: Growth percent rate
U251 = assay: NCI60 one-dose screen (10 μM), CNS Cancer; format: cell-based; conditions: Homo sapiens, U-251, read-out: Growth percent rate
SK-MEL-2 = assay: NCI60 one-dose screen (10 μM), Melanoma; format: cell-based; conditions: Homo sapiens, SK-MEL-2, read-out: Growth percent rate
A498 = assay: NCI60 one-dose screen (10 μM), Renal Cancer; format: cell-based; conditions: Homo sapiens, A498, read-out: Growth percent rate
COLO 205 = assay: NCI60 one-dose screen (10 μM), Colon Cancer; format: cell-based, human; conditions: Homo sapiens, COLO 205, read-out: Growth percent rate
IGROV1 = assay: NCI60 one-dose screen (10 μM), Ovarian Cancer; format: cell-based; conditions: Homo sapiens, IGROV-1, read-out: Growth percent rate
[1] = system: 60 human tumor cell lines (NCI60); assay: NCI60 one-dose screen (10 μM), whole panel; format: cell-based
OVCAR-8 = assay: NCI60 one-dose screen (10 μM), Ovarian Cancer; format: cell-based; conditions: Homo sapiens, OVCAR-8, read-out: Growth percent rate
CCRF-CEM = assay: NCI60 one-dose screen (10 μM), Leukemia; format: cell-based; conditions: Homo sapiens, read-out: Growth percent rate
OVCAR-3 = assay: NCI60 one-dose screen (10 μM), Ovarian Cancer; format: cell-based; conditions: Homo sapiens, OVCAR-3, read-out: Growth percent rate
HCT-15 = assay: NCI60 one-dose screen (10 μM), Colon Cancer; format: cell-based; conditions: Homo sapiens, HCT-15, read-out: Growth percent rate
HS 578T = assay: NCI60 one-dose screen (10 μM), Breast Cancer; format: cell-based; conditions: Homo sapiens, Hs-578T, read-out: Growth percent rate
M14 = assay: NCI60 one-dose screen (10 μM), Melanoma; format: cell-based; conditions: Homo sapiens, M14, read-out: Growth percent rate
786–0 = assay: NCI60 one-dose screen (10 μM), Renal Cancer; format: cell-based; conditions: Homo sapiens, 786-0, read-out: Growth percent rate
MOLT-4 = assay: NCI60 one-dose screen (10 μM), Leukemia; format: cell-based, human; conditions: Homo sapiens, MOLT-4, read-out: Growth percent rate
ACHN = assay: NCI60 one-dose screen (10 μM), Renal Cancer; format: cell-based; conditions: Homo sapiens, read-out: Growth percent rate
NCI-H23 = assay: NCI60 one-dose screen (10 μM), Non-small Cell Lung Cancer; format: cell-based; conditions: Homo sapiens, NCI-H23, read-out: Growth percent rate
HCC-2998 = assay: NCI60 one-dose screen (10 μM), Colon Cancer; format: cell-based; conditions: Homo sapiens, HCC 2998, read-out: Growth percent rate
CAKI-1 = assay: NCI60 one-dose screen (10 μM), Renal Cancer; format: cell-based; conditions: Homo sapiens, CAKI-1, read-out: Growth percent rate
K-562 = assay: NCI60 one-dose screen (10 μM), Leukemia; format: cell-based; conditions: Homo sapiens, K562, read-out: Growth percent rate
MCF7 = assay: NCI60 one-dose screen (10 μM), Breast Cancer; format: cell-based; conditions: Homo sapiens, MCF7, read-out: Growth percent rate
SK-MEL-28 = assay: NCI60 one-dose screen (10 μM), Melanoma; format: cell-based; conditions: Homo sapiens, SK-MEL-28, read-out: Growth percent rate
SK-MEL-5 = assay: NCI60 one-dose screen (10 μM), Melanoma; format: cell-based, human; conditions: Homo sapiens, SK-MEL-5, read-out: Growth percent rate
A549/ATCC = assay: NCI60 one-dose screen (10 μM), Non-small Cell Lung Cancer; format: cell-based; conditions: Homo sapiens, A549, read-out: Growth percent rate
SF-268 = assay: NCI60 one-dose screen (10 μM), CNS Cancer; format: cell-based; conditions: Homo sapiens, SF-268, read-out: Growth percent rate
UACC-257 = assay: NCI60 one-dose screen (10 μM), Melanoma; format: cell-based; conditions: Homo sapiens, UACC-257, read-out: Growth percent rate
RPMI-8226 = assay: NCI60 one-dose screen (10 μM), Leukemia; format: cell-based; conditions: Homo sapiens, RPMI-8226, read-out: Growth percent rate
SW-620 = assay: NCI60 one-dose screen (10 μM), Colon Cancer; format: cell-based; conditions: Homo sapiens, SW-620, read-out: Growth percent rate
SF-539 = assay: NCI60 one-dose screen (10 μM), CNS Cancer; format: cell-based, human; conditions: Homo sapiens, SF-539, read-out: Growth percent rate
EKVX = assay: NCI60 one-dose screen (10 μM), Non-small Cell Lung Cancer; format: cell-based; conditions: Homo sapiens, read-out: Growth percent rate
NCI-H460 = assay: as above; format: cell-based; conditions: Homo sapiens, NCI-H460, read-out: Growth percent rate
HOP-62 = assay: as above; format: cell-based; conditions: Homo sapiens, HOP-62, read-out: Growth percent rate
HL-60(TB) = assay: NCI60 one-dose screen (10 μM), Leukemia; format: cell-based; conditions: Homo sapiens, HL-60, read-out: Growth percent rate
RXF 393 = assay: NCI60 one-dose screen (10 μM), Renal Cancer; format: cell-based, human; conditions: Homo sapiens, RXF 393, read-out: Growth percent rate
MDA-MB-435 = assay: NCI60 one-dose screen (10 μM), Melanoma; format: cell-based; conditions: Homo sapiens, MDA-MB-435, read-out: Growth percent rate
SN12C = assay: NCI60 one-dose screen (10 μM), Renal Cancer; format: cell-based; conditions: Homo sapiens, read-out: Growth percent rate

## CCC12C=CCN3CCC4(c5ccc(OC)cc5N(C)C4C(O)(C(=O)OC)C1O)C32 (stereo not shown) [Compound 13, 17-desacetylvindoline]
NCI-H322M
  activity at 10 µM: 92.8%
OVCAR-4
  activity at 10 µM: 95.8%
SNB-75
  activity at 10 µM: 84.9%
HT29
  activity at 10 µM: 102%
NCI-H522
  activity at 10 µM: 94%
DU-145
  activity at 10 µM: 110%
HCT-116
  activity at 10 µM: 99.2%
U251
  activity at 10 µM: 99.3%
SK-MEL-2
  activity at 10 µM: 116%
A498
  activity at 10 µM: 104%
COLO 205
  activity at 10 µM: 118%
IGROV1
  activity at 10 µM: 95.8%
[1]; 10 μM one-dose, NCI60
  antiproliferative effect (in words): a notable antiproliferative effect was not shown
[1]; Homo sapiens, read-out: Growth percent rate, Mean
  activity at 10 µM: 98.8%
OVCAR-8
  activity at 10 µM: 103%
CCRF-CEM
  activity at 10 µM: 103%
OVCAR-3
  activity at 10 µM: 112%
HCT-15
  activity at 10 µM: 99.2%
HS 578T
  activity at 10 µM: 100%
M14
  activity at 10 µM: 94.7%
786–0
  activity at 10 µM: 97.7%
MOLT-4
  activity at 10 µM: 100%
ACHN
  activity at 10 µM: 96%
NCI-H23
  activity at 10 µM: 93%
HCC-2998
  activity at 10 µM: 96.8%
CAKI-1
  activity at 10 µM: 98.2%
K-562
  activity at 10 µM: 101%
MCF7
  activity at 10 µM: 95.7%
SK-MEL-28
  activity at 10 µM: 92.1%
SK-MEL-5
  activity at 10 µM: 90.5%
A549/ATCC
  activity at 10 µM: 103%
SF-268
  activity at 10 µM: 107%
UACC-257
  activity at 10 µM: 96.7%
RPMI-8226
  activity at 10 µM: 99.4%
SW-620
  activity at 10 µM: 99.4%
SF-539
  activity at 10 µM: 96.6%
EKVX
  activity at 10 µM: 98.9%
NCI-H460
  activity at 10 µM: 106%
HOP-62
  activity at 10 µM: 102%
HL-60(TB)
  activity at 10 µM: 119%
RXF 393
  activity at 10 µM: 104%
MDA-MB-435
  activity at 10 µM: 89%
SN12C
  activity at 10 µM: 99%

Source: article PMC11277489, “Novel Piperazine Derivatives of Vindoline as Anticancer Agents” (International Journal of Molecular Sciences, 2024)
